Experimental data reported in publication PMC11078746 (Nature, 2024).
Several values for one entry are separate records, joined by “and”; a condition that tells them apart may be missing. Identical values can stand only once.

Tested on: SW48 xenografts
Assay: SW48 xenograft efficacy, compound 3 p.o. twice daily
Format: in vivo, mouse
Settings: for Tumour volume (TVol): single mouse, listed as WRNi #4
Procedure: All animal studies were conducted in accordance with ethics and procedures covered by permit BS-2275 and BS-1975 issued by the Kantonales Veterinäramt Basel-Stadt and in strict adherence to guidelines of the Eidgenössisches Tierschutzgesetz and the Eidgenössische Tierschutzverordnung, Switzerland. All animal studies were approved by the internal ethics committee. All animals had access to food and water ad libitum and were identified with transponders. They were housed in a specific-pathogen-free facility in IVC racks under a 12 h–12 h light–dark cycle. To establish cell-line-derived xenograft models, 6–7-week-old female athymic nude (Crl:NU(NCr)-Foxn1^nu) or SCID-BEIGE (CB17.Cg-PrkdcscidLystbg-J/Crl) mice from Charles River were engrafted subcutaneously with 5 million tumour cells in HBSS (H6648, Sigma-Aldrich). For SNU-407, Lovo, IM95, RL95.2, Ishikawa and IGROV-1, the cells were concentrated in 50% Matrigel (354234, Corning). Patient-derived xenografts were induced and expanded by transplantation as previously described. […] For the efficacy experiment, mice were randomized into groups (n = 5–6) for a mean tumour size of 100–150 mm^3. […] Blood samples were collected on day 7 and 91. […] Tumour responses are reported with the measures of tumour volumes from the treatment start. […] Animals were randomized (n = 3) and tumour samples were collected at 0, 1, 4, 8 and 24 h on the first day and then collected 4 h after the last treatment on day 3, 8, 10, 14 (including a 24 h timepoint), 17 and 21. Tumours were excised, weighed, either frozen in liquid nitrogen and cryogenic dry pulverized with the CryoPrep system (model CP-02, Covaris) or processed to FFPE after fixation. […] On day 12, blood samples were collected for PK analysis. On the last day (3 h after the last treatment), tumours were excised, weighed, frozen in liquid nitrogen and cryogenic dry pulverized for PD analysis.

CCc1c(N2CCN(C(=O)c3ncccc3O)CC2)c(=O)n2nc(C3=CCOCC3)nc2n1CC(=O)Nc1ccc(C(F)(F)F)cc1C [compound 3]
Mean TVol (15mg/kg BID, day 0): 186.30 mm3
Tumour volume (TVol) (15mg/kg BID, day 0): 125.21 mm3 and 176.57 mm3 and 158.22 mm3 and 139.01 mm3 and 236.47 mm3 and 285.36 mm3 and 183.25 mm3
Mean TVol (15mg/kg BID, day 4): 363.88 mm3
Tumour volume (TVol) (15mg/kg BID, day 4): 335.90 mm3 and 349.83 mm3 and 278.60 mm3 and 343.34 mm3 and 317.21 mm3 and 499.75 mm3 and 422.53 mm3
Mean TVol (15mg/kg BID, day 6): 401.70 mm3
Tumour volume (TVol) (15mg/kg BID, day 6): 446.30 mm3 and 500.68 mm3
Mean TVol (15mg/kg BID, day 8): 483.57 mm3
Mean TVol (15mg/kg BID, day 11): 653.78 mm3
Tumour volume (TVol) (15mg/kg BID, day 11): 649.03 mm3 and 796.01 mm3 and 408.88 mm3 and 697.95 mm3 and 448.35 mm3 and 901.30 mm3 and 674.92 mm3
Mean TVol (15mg/kg BID, day 13): 737.71 mm3
Tumour volume (TVol) (15mg/kg BID, day 13): 506.43 mm3 and 897.69 mm3 and 575.84 mm3 and 720.03 mm3 and 530.25 mm3 and 1055.13 mm3 and 878.60 mm3
Mean TVol (50mg/kg BID, day 0): 186.25 mm3
Tumour volume (TVol) (50mg/kg BID, day 0): 104.69 mm3 and 206.32 mm3 and 158.46 mm3 and 258.06 mm3 and 184.54 mm3 and 140.44 mm3 and 251.24 mm3
Mean TVol (50mg/kg BID, day 4): 286.97 mm3
Tumour volume (TVol) (50mg/kg BID, day 4): 175.53 mm3 and 349.15 mm3 and 205.03 mm3 and 394.61 mm3 and 285.83 mm3 and 247.36 mm3 and 351.29 mm3
Mean TVol (50mg/kg BID, day 6): 317.35 mm3
Tumour volume (TVol) (50mg/kg BID, day 6): 143.51 mm3 and 438.53 mm3 and 201.74 mm3 and 334.71 mm3 and 301.07 mm3 and 265.24 mm3 and 536.64 mm3
Mean TVol (50mg/kg BID, day 8): 332.70 mm3
Mean TVol (50mg/kg BID, day 11): 410.64 mm3
Tumour volume (TVol) (50mg/kg BID, day 11): 304.71 mm3 and 545.58 mm3 and 199.89 mm3 and 340.76 mm3 and 293.59 mm3 and 390.68 mm3 and 799.25 mm3
Mean TVol (50mg/kg BID, day 13): 453.33 mm3
Tumour volume (TVol) (50mg/kg BID, day 13): 281.31 mm3 and 743.48 mm3 and 206.77 mm3 and 483.85 mm3 and 288.10 mm3 and 511.66 mm3 and 658.13 mm3
tumour response (150 mg per kg orally twice daily): stable disease
Mean TVol (150mg/kg BID, day 0): 186.70 mm3
Tumour volume (TVol) (150mg/kg BID, day 0 post 1st dose): 121.54 mm3 and 271.88 mm3 and 115.87 mm3 and 175.12 mm3 and 222.88 mm3 and 177.21 mm3 and 222.42 mm3
Mean TVol (150mg/kg BID, day 4): 226.51 mm3
Tumour volume (TVol) (150mg/kg BID, day 4): 200.34 mm3 and 361.96 mm3 and 112.57 mm3 and 220.17 mm3 and 244.46 mm3 and 160.01 mm3 and 286.05 mm3
Mean TVol (150mg/kg BID, day 6): 224.94 mm3
Tumour volume (TVol) (150mg/kg BID, day 6): 174.76 mm3 and 361.01 mm3 and 147.06 mm3 and 189.44 mm3 and 231.82 mm3 and 170.17 mm3 and 300.33 mm3
Mean TVol (150mg/kg BID, day 8): 196.74 mm3
Mean TVol (150mg/kg BID, day 11): 203.13 mm3
Tumour volume (TVol) (150mg/kg BID, day 11): 147.98 mm3 and 318.20 mm3 and 124.24 mm3 and 228.02 mm3 and 223.70 mm3 and 145.76 mm3 and 234.03 mm3
Mean TVol (150mg/kg BID, day 13): 172.38 mm3
Tumour volume (TVol) (150mg/kg BID, day 13): 158.96 mm3 and 252.06 mm3 and 121.12 mm3 and 163.89 mm3 and 181.33 mm3 and 166.20 mm3 and 163.13 mm3
Reg (150 mg/kg p.o. twice daily): 4 % Reg
